Laboratory results reported in patent US9745335B2 (Blirt S.A., priority 2012, dated 2017).
In brackets after ≈: the same amount, converted by molar mass. Where two headings read alike, the source gives them in different places.

Tests used:
[1] = tested on: CCRF-CEM cells; assay: cytotoxic activity against mammalian cells in tissue culture (MTT); assay type: cell-based, human
Description: (§1) All media contained 100 μg/ml of penicillin G and streptomycin. 24-wells microplates containing appropriate medium were inoculated with the cells in amount of 1.2×10^4 cells/well and allowed to stand overnight. Next, tested compounds as solution in dimethylsulfoxide (DMSO) were added in volume of 10 μl (serial 2× dilutions). To control well 10 μl of DMSO was added. Microplates with cell suspensions were incubated for 120 h at temperature 37° C. at atmosphere of 95%/5% CO2. After incubation, to all wells 200 μl of solution of 3-(4,5-dimethyltiazole-2-yl)-2,5-diphenylotetrazole bromide (MTT) in PBS (4 mg/ml) was added and plates were further incubated for 4 h at 37° C. Next, to dissolve crystals of formazane 1 ml of DMSO was added and absorption of solutions was measured at the wavelength λ=540 nm (A540), using a microplates reader (Victor^3, Perkin-Wallac). […] From these graphs IC50 values were read, that is concentration of tested compound in the presence at which A540 value is half of A540 value measured in the control sample.

[2] = tested on: HepG2 cells; assay: as above; assay type: cell-based, human
Description: as §1

[3] = tested on: Saccharomyces cerevisiae ATCC 9763; assay: antifungal activity in vitro, serial dilution in RPMI 1640; assay type: cell-based; conditions: RPMI 1640, pH 7.0; for Antifungal activity IC50: Saccharomyces cerevisiae ATCC 9763 (first head over MIC and IC50); for Antifungal activity MIC: Saccharomyces cerevisiae ATCC 9763
Description: (§2) For the determination of antifungal activity in vitro we used method of serial dilution in buffered medium RPMI 1640, pH 7.0, in a 96-wells microplates, according to the standard procedure (National Committee for Clinical Laboratory Standards. Reference method for broth dilution antifungal susceptibility testing of yeast, approved standard, 2nd ed. M27-A2 vol. 22 Wayne, Pa., 2002). The optical density of cells suspension was measured using a microplates reader (Victor^3, Perkin-Elmer) at the wavelength λ=531 nm (A531). On the basis of obtained results the diagrams of relation between A531 values and concentration of examined compound were made.

[4] = tested on: Candida tropicalis KKP 334; assay: as above; assay type: cell-based
Description: as §2

[5] = tested on: Candida albicans ATCC 10231; assay: as above; assay type: cell-based
Description: as §2

[6] = tested on: Candida lusitaniae DSM 70102; assay: as above; assay type: cell-based
Description: as §2

[7] = tested on: Candida glabrata DSM 11226; assay: as above; assay type: cell-based
Description: as §2

[8] = tested on: Candida krusei DSM 6128; assay: as above; assay type: cell-based
Description: as §2

[9] = tested on: Human erythrocytes; assay: hemotoxicity determination (hemolytic activity); assay type: cell-based
Description: The hemotoxicity determination was carried out by the serial dilutions method, according to the procedure described earlier (Slisz, M., et al., E., J Antibiot 57: 669-678 (2004). Human erythrocytes were suspended in the solution of saline to obtain a cell density of suspension 2×10^7/ml. Suitable amounts of diluted solutions of compounds were added to the cell suspension in tubes and were incubated at 37° C. for 30 minutes and then centrifuged (1700×g, 10 min, 4° C.). The concentration of hemoglobin in supernatant after centrifugation of erythrocytes suspension were determined by measuring the absorbance at wavelength λ=540 nm (A540). The maximum level of hemolysis was obtained after incubation of cells suspension in the presence of 0.1% Tritone X-100 (control sample). […] From these graphs, the EH50 values were read which are the interpolated concentrations of compound, for which the A540 value is exactly 50% of the A540 value measured for the control sample.

[10] = tested on: LLC-PK1 cells; assay: cytotoxic activity against mammalian cells in tissue culture (MTT); assay type: cell-based, pig
Description: as §1

[11] = human erythrocytes, 37° C., 30 minutes

Structure (SMILES) | IC50 (cytotoxic activity) [1] | IC50 (cytotoxic activity) [2] | Antifungal activity IC50 [3] | Antifungal activity MIC [3] | Antifungal activity MIC [4] | Antifungal activity MIC [5] | Antifungal activity MIC [6] | Antifungal activity MIC [7] | Antifungal activity MIC [8] | Hemotoxi EH50 [9] | IC50 (cytotoxic activity) [10] | Hemotoxi EH50 [9, 11]
C[C@@H]1[C@H](O)[C@@H](C)/C=C/C=C/C=C/C=C/C=C/C=C/C=C/[C@H](O[C@@H]2O[C@H](C)[C@@H](O)[C@H](NC(=S)NCCN3CCOCC3)[C@@H]2O)C[C@@H]2O[C@](O)(C[C@@H](O)C[C@@H](O)[C@H](O)CC[C@@H](O)C[C@@H](O)CC(=O)O[C@H]1C)C[C@H](O)[C@H]2C(=O)O [Compound A24, N-{[3-(2-morpholin-1-yl)ethyl]thioureidyl}amphotericin B] | 80.9 ± 2.3 mg/L (≈ 73.8 µM) | >100 mg/L | 1.13 mg/L | 2 mg/L | 2 mg/L | 2 mg/L | 2 mg/L | 4 mg/L | 4 mg/L | >100 µg/mL | >100 mg/L | –
C[C@@H]1[C@H](O)[C@@H](C)/C=C/C=C/C=C/C=C/C=C/C=C/C=C/[C@H](O[C@@H]2O[C@H](C)[C@@H](O)[C@H](NC(=S)NCCN3CCCC3)[C@@H]2O)C[C@@H]2O[C@](O)(C[C@@H](O)C[C@@H](O)[C@H](O)CC[C@@H](O)C[C@@H](O)CC(=O)O[C@H]1C)C[C@H](O)[C@H]2C(=O)O [Compound A27, N-{[3-(2-pyrrolidin-1-yl)ethyl]thioureidyl}amphotericin B] | >100 mg/L | >100 mg/L | 0.75 mg/L | 2 mg/L | 2 mg/L | 2 mg/L | 2 mg/L | 4 mg/L | 4 mg/L | >100 µg/mL | >100 mg/L | –
CCCN(CC1(O)OCC(O)C(O)C1O)C1C(O)C(C)OC(OC2C=CC=CC=CC=CC=CC=CC=CC(C)C(O)C(C)C(C)OC(=O)CC(O)CC(O)CCC(O)C(O)CC(O)CC3(O)CC(O)C(C(=O)O)C(C2)O3)C1O (stereo not drawn) [Compound A16, N-fructosyl-N-n-propylamphotericin B] | 50.1 ± 1.3 mg/L (≈ 44.4 µM) | 73.3 ± 1.20 mg/L (≈ 65 µM) | – | – | – | – | – | – | – | – | >100 mg/L | –
C[C@@H]1[C@H](O)[C@@H](C)/C=C/C=C/C=C/C=C/C=C/C=C/C=C/[C@H](O[C@@H]2O[C@H](C)[C@@H](O)[C@H](NC(=S)NCCN(C)C)[C@@H]2O)C[C@@H]2O[C@](O)(C[C@@H](O)C[C@@H](O)[C@H](O)CC[C@@H](O)C[C@@H](O)CC(=O)O[C@H]1C)C[C@H](O)[C@H]2C(=O)O [Compound A28, N-{3-[2-(N,N-dimethylamino)ethyl]thioureidyl}amphotericin B] | >100 mg/L | >100 mg/L | 0.50 mg/L | 1 mg/L | 1 mg/L | 1 mg/L | 1 mg/L | 4 mg/L | 2 mg/L | 81.73 µg/mL | >100 mg/L | –
C[C@@H]1[C@H](O)[C@@H](C)/C=C/C=C/C=C/C=C/C=C/C=C/C=C/[C@H](O[C@@H]2O[C@H](C)[C@@H](O)[C@H](NC3CC(=O)N(c4ccc([N+](=O)[O-])cc4)C3=O)[C@@H]2O)C[C@@H]2O[C@](O)(C[C@@H](O)C[C@@H](O)[C@H](O)CC[C@@H](O)C[C@@H](O)CC(=O)O[C@H]1C)C[C@H](O)[C@H]2C(=O)O (stereo partly drawn) [Compound A5, N—[N-(4-nitrophenyl)succinimidyl]amphotericin B] | – | – | 1.94 mg/L | 4 mg/L | 4 mg/L | 4 mg/L | 2 mg/L | 4 mg/L | 4 mg/L | >100 µg/mL | – | –
C[C@@H]1[C@H](O)[C@@H](C)/C=C/C=C/C=C/C=C/C=C/C=C/C=C/[C@H](O[C@@H]2O[C@H](C)[C@@H](O)[C@H](NC3CC(=O)N(Cc4ccccc4)C3=O)[C@@H]2O)C[C@@H]2O[C@](O)(C[C@@H](O)C[C@@H](O)[C@H](O)CC[C@@H](O)C[C@@H](O)CC(=O)O[C@H]1C)C[C@H](O)[C@H]2C(=O)O (stereo partly drawn) [Compound A2, N—(N-benzylsuccinimidyl)amphotericin B] | – | – | 2.22 mg/L | 4 mg/L | 4 mg/L | 4 mg/L | 2 mg/L | 8 mg/L | 8 mg/L | >100 µg/mL | – | –
C[C@@H]1[C@H](O)[C@@H](C)/C=C/C=C/C=C/C=C/C=C/C=C/C=C/[C@H](O[C@@H]2O[C@H](C)[C@@H](O)[C@H](NC(=S)Nc3ccccc3)[C@@H]2O)C[C@@H]2O[C@](O)(C[C@@H](O)C[C@@H](O)[C@H](O)CC[C@@H](O)C[C@@H](O)CC(=O)O[C@H]1C)C[C@H](O)[C@H]2C(=O)O [Compound A23, N-[(3-phenyl)-thioureidyl]amphotericin B] | – | – | 2.54 mg/L | 4 mg/L | 4 mg/L | 4 mg/L | 4 mg/L | 8 mg/L | 8 mg/L | >100 µg/mL | – | –
C[C@@H]1[C@H](O)[C@@H](C)/C=C/C=C/C=C/C=C/C=C/C=C/C=C/[C@H](O[C@@H]2O[C@H](C)[C@@H](O)[C@H](NCc3ccc(C(C)(C)C)cc3)[C@@H]2O)C[C@@H]2O[C@](O)(C[C@@H](O)C[C@@H](O)[C@H](O)CC[C@@H](O)C[C@@H](O)CC(=O)O[C@H]1C)C[C@H](O)[C@H]2C(=O)O [Compound A21, N-(4-tert-butylbenzyl)amphotericin B] | – | – | 1.58 mg/L | 4 mg/L | 4 mg/L | 4 mg/L | 2 mg/L | 4 mg/L | 4 mg/L | >100 µg/mL | – | –
C[C@@H]1[C@H](O)[C@@H](C)/C=C/C=C/C=C/C=C/C=C/C=C/C=C/[C@H](O[C@@H]2O[C@H](C)[C@@H](O)[C@H](NC(=O)C(N)Cc3ccccc3F)[C@@H]2O)C[C@@H]2O[C@](O)(C[C@@H](O)C[C@@H](O)[C@H](O)CC[C@@H](O)C[C@@H](O)CC(=O)O[C@H]1C)C[C@H](O)[C@H]2C(=O)O (stereo partly drawn) [Compound A38, N-o-fluorophenylalanylamphotericin B] | – | – | 1.92 mg/L | 4 mg/L | 4 mg/L | 2 mg/L | 2 mg/L | 4 mg/L | 4 mg/L | – | – | >100 µg/mL
C[C@@H]1[C@H](O)[C@@H](C)/C=C/C=C/C=C/C=C/C=C/C=C/C=C/[C@H](O[C@@H]2O[C@H](C)[C@@H](O)[C@H](NCc3ccc(-c4ccccc4)cc3)[C@@H]2O)C[C@@H]2O[C@](O)(C[C@@H](O)C[C@@H](O)[C@H](O)CC[C@@H](O)C[C@@H](O)CC(=O)O[C@H]1C)C[C@H](O)[C@H]2C(=O)O [Compound A20, N-[(4-biphenyl)methyl]amphotericin B] | – | – | 1.63 mg/L | 4 mg/L | 4 mg/L | 4 mg/L | 4 mg/L | 4 mg/L | 4 mg/L | – | – | >100 µg/mL
